Data set [1] concerns the target T1, GR and ERG (Homo sapiens, UniProt P04150). On the procedure:
(§1) (A) The scheme presents the full length Gaussia luciferase protein, along with either the amino-terminal segment (Gluc1), which was fused to an ETS family transcription factor, or the carboxyl terminal segment (Gluc2), which was fused to GR. Amino acid numbers are indicated. cDNAs encoding most members of the ETS family (16 members altogether) were cloned downstream to Gluc1. […] (B) HEK-293T cells (6×10^3) were seeded in 96-well plates. On the next day, cells were transfected with combinations of the Gluc1 plasmid, encoding a fused ETS family member, and the Gluc2 plasmid encoding a fused full-length GR. […] Cells were then lysed and luminescence was determined in biological triplicates. […] (D and E) HEK-293T cells were seeded in 100-mm dishes. Once they reached sub-maximal density (70%), cells were starved overnight for serum factors. […] Cell extracts were then processed for co-immunoprecipitation assays, in which the endogenous FLI1 or ERG protein was immunoprecipitated using a specific antibody, and immunoblotting was performed using an antibody against GR. EB, empty beads; C, solvent control. Images shown are representative of three biological replicates.
(A) HEK-293T cells (6×10^3) were seeded in 96-well plates. On the next day, the cells were transfected with combinations of the Gluc1 plasmid, encoding fused FLI1 or ERG, and the Gluc2 plasmid encoding GR. […] Cells were then lysed and luminescence was determined in each sample. Luminescence of vehicle-treated cells was used for normalization. […] (B) HEK-293T cells were seeded on coverslips in 6-well plates. […] Images were processed using the Zeiss ZEN2011 software. […] Bars, 20 μm.
Protein-fragment complementation assays (PCA): PCA was performed as previously described.

Data set [2] addresses T1, GR and ERG. On the procedure: as §1
Proximity ligation assay (PLA), extraction of cells, co-immunoprecipitation and cell migration/invasion assays: These assays were performed exactly as recently reported.
The source holds these as a separate data set.

In data set [3] the test system is glucocorticoid response element (GRE). As to conditions: naïve cells, endogenous GR; 100 nM, 24 hours.
Experimental: HEK-293T cells (1.2×10^4) were seeded in 48-well plates. […] In addition, cells were co-transfected with increasing amounts of a GR expression vector (A), a FLI1-encoding vector (B) or with a combination of both a FLI1 vector and a vector encoding GR, either wild type (C) or a mutant receptor (GRdim−, panel D). Luciferase activity was determined, in biological triplicates, 48 hours later and presented in bar plots. Cells that were pre-transfected with the reporter plasmid were used for normalization. *, p≤0.05; ***, p≤0.001. […] This was followed by cell lysis and determination of luciferase activity in biological triplicates.
Luciferase-reporter assays: Cells were co-transfected with a luciferase plasmid containing the consensus glucocorticoid response element (GRE) along with pGL3-Control (Promega, Madison, Wis.). Luciferase activity was determined using the dual-luciferase reporter assay system (Promega). Firefly luciferase luminescence values were normalized to Renilla luminescence.
Data set [4] addresses T2, MR and ERG (Homo sapiens, UniProt P08235).
T2 construct: expressed in transfected cells; host or cells: HEK-293T
T2 sequence (P08235 1-984): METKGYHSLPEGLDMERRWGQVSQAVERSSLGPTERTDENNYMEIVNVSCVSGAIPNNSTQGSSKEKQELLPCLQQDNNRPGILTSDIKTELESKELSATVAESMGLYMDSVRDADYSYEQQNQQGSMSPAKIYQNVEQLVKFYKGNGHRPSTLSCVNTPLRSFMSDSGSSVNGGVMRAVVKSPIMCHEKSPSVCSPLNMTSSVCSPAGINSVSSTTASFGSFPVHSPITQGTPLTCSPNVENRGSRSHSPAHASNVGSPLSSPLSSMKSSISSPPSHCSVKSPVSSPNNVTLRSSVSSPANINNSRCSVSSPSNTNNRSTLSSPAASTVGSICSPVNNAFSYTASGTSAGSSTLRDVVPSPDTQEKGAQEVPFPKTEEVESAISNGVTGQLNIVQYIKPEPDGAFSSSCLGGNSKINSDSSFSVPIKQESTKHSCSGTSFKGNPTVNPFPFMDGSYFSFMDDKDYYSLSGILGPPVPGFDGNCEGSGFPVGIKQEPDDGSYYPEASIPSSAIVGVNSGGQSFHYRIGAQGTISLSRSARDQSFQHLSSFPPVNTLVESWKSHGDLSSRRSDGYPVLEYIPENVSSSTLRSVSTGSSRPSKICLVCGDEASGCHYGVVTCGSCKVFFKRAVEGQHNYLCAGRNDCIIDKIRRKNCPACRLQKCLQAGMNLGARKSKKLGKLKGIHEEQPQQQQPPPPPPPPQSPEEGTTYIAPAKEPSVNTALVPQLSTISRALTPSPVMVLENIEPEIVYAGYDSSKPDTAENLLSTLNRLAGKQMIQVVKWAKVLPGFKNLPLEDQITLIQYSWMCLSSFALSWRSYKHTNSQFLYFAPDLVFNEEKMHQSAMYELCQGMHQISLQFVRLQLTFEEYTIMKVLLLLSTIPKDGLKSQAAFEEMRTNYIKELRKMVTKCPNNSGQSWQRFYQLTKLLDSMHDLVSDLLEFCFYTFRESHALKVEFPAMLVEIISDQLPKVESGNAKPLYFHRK
T2 sequence (P11308 1-486 isoform P11308-3 partner): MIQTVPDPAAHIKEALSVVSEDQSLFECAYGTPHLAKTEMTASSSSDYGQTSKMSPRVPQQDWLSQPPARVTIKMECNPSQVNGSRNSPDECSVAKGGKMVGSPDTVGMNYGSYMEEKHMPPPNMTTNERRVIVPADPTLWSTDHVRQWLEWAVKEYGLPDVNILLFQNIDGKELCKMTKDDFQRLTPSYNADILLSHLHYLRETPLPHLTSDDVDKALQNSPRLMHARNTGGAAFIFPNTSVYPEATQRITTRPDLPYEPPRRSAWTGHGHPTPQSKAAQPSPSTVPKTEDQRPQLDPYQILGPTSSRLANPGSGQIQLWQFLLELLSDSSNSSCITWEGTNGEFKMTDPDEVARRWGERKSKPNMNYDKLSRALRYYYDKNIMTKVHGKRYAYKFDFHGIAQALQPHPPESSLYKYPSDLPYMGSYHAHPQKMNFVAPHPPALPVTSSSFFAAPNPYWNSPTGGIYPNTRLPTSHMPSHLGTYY
The data set can be described thus: PCA, Gluc1-ERG + MR-Gluc2. It counts as cell-based. As to conditions: DEX 1 μM, 60 minutes. As for the experimental part:
Cells were then lysed and luminescence was determined.

Data set [5] relates to A673 tumors. As to the kind of experiment: Immunoblotting of A673 tumor extracts. Type of data set: in vivo, SCID mice. On the procedure:
FIGS. 13A-B: A GR antagonist and a cortisol-lowering drug induce markers of cell death in animal models of Ewing's sarcoma. (A) RD-ES tumors presented in FIG. 6A were extracted and analyzed using immunoblotting and the indicated antibodies. Note that tumors from three different mice per group were analyzed. (B) Whole extracts prepared from the tumors presented in FIG. 6D were analyzed using immunoblotting and the indicated antibodies. Note that tumors from three different mice per group were analyzed.
ES animal model studies: All animal experiments were approved by the Weizmann Institute's Animal Care and Use Committee. RD-ES cells and A673 cells (2.5×10^6) were inoculated subcutaneously in the right legs of female SCID mice (6 weeks old). Tumor growth was monitored once every 3 days using a caliper. […] Mice were euthanized when tumor size reached 800-900 mm^3. For metastasis assays, luciferase-labeled TC-71 cells (10^6) were injected orthotopically into the tibia of female SCID mice. Once the primary tumor reached the allowed size limit, we excised the lungs and examined metastases using luciferase bioluminescence imaging.

Data set [6] relates to A673 xenograft. As to the kind of experiment: A673 xenograft tumor growth. It counts as in vivo, SCID mice. As to conditions: 25 mg/kg daily. The text has this: FIGS. 6A-E. A GR antagonist and a cortisol-lowering drug impede growth of human xenograft models of Ewing's sarcoma. (A) RD-ES cells (2×10^6) were implanted subcutaneously in the right flank of SCID mice. […] The means of tumor volumes (+SEM) are shown. […] (B) Shown are representative images of immunofluorescent staining for KI67 in paraffin-embedded sections of tumors from A, using an antibody against KI67. Scale bars, 100 μm. Also shown is the scatter plot depicting quantification of KI67 staining in randomly selected 4 fields of a representative tumor from each group. […] (C and D) A673 cells (2×10^6) were implanted in female SCID mice. […] Each group was daily treated with either vehicle, or Metyrapone (25 mg/kg) and tumorigenic growth was monitored. Actual tumor volumes (±SEM) are presented. Also shown are tumors harvested from each group of animals; **p<0.001. (E) TC-71 cells (10^6) engineered to stably express luciferase were injected into the tibia of female SCID mice (5 weeks old; 7 mice per group). […] The control group was similarly treated with the solvent (0.1% tween 80). When the primary tumor reached 10% of body weight, the lungs were excised and examined for metastasis using luciferase bioluminescence imaging. […] Luminescence was quantified and presented in a bar graph. […] Tumor growth was monitored once every 3 days using a caliper. […]

SMILES strings stand for the structures.

T1 sequence (P04150 whole entry, the tested form may be a part): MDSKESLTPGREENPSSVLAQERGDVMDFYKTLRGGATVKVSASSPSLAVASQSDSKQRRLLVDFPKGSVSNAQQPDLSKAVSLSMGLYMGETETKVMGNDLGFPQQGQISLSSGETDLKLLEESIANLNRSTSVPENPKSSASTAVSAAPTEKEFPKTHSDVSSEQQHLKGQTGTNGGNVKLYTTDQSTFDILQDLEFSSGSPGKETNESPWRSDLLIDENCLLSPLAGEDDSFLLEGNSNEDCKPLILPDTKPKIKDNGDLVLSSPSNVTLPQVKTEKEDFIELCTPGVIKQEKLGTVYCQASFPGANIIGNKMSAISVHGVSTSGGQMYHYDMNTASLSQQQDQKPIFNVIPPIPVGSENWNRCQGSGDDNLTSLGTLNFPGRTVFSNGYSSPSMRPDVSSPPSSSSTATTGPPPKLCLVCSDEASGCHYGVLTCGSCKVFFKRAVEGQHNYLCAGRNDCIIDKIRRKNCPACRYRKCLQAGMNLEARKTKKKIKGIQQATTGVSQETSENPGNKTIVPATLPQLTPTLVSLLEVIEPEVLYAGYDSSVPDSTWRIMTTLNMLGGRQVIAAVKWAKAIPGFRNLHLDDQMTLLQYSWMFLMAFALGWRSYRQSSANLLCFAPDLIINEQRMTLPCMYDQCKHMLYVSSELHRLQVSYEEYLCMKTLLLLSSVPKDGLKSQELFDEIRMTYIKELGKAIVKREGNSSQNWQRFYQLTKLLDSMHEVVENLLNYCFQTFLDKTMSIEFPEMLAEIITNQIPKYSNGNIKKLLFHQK

With `C[C@@H]1C[C@H]2[C@@H]3CCC4=CC(=O)C=C[C@]4(C)[C@@]3(F)[C@@H](O)C[C@]2(C)[C@@]1(O)C(=O)CO` [DEX, dexamethasone], in data set [1], the “luciferase activity (PCA), GR-ERG interaction” value was “highly significant increases” and the “time of peak of GR-ERG signals after stimulation (PCA)” value is on record as “peaked earlier”. For the same compound, the “co-immunoprecipitation of GR and ERG” value in data set [2] is recorded as “enhanced”. Further, the “increase of GRE activity (luciferase)” value in data set [3] came out at 40 fold. Further, the “interaction between MR and ERG (PCA)” value in data set [4] is “stimulated strong interactions”.

Take `CC(C)(C(=O)c1cccnc1)c1cccnc1` [metyrapone]: the γH2AX in tumors entry in data set [5] is given as “elevated”. For the same compound, the tumor growth rates entry in data set [6] was “clear and statistically significant decrease”.

(Values after US20210275545A1, “METHOD OF TREATING CANCER PREFERABLY CHARACTERIZED BY EXPRESSION OF A FUSION PROTEIN COMPRISING A MEMBER OF THE E-TWENTY-SIX FAMILY BY ADMINISTERING AN AGENT THAT INHIBITS THE SYNTHESIS AND/OR ACTIVITY OF CORTISOL” (Yeda Research and Development Co. Ltd., priority 2018, published 2021).)
